The values below come from PMC5830763, “Discovery of benzothiazolylquinoline conjugates as novel human A3 receptor antagonists: biological evaluations and molecular docking studies” (Royal Society Open Science, 2018).

The target of one data set is T1, hA2BAR (Homo sapiens, UniProt P29275).
T1 construct: expressed in transfected cells; host or cells: CHO cells (crude membrane pellet)
T1 sequence (P29275 1-332): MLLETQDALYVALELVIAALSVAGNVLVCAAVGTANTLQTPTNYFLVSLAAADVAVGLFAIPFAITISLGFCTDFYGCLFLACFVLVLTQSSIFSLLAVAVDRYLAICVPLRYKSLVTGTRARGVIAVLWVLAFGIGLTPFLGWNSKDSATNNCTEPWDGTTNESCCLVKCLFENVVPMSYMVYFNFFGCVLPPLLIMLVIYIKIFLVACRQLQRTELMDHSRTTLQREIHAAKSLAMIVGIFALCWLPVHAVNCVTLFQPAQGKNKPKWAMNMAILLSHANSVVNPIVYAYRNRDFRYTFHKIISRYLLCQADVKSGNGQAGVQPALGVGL
Kind of data set: Inhibition of NECA-stimulated adenylyl cyclase activity in CHO cells expressing hA2BAR. The format is biochemical. The conditions noted are these: read-out: Ki hA2B (95% CI). As to the method:
(§1) The human A1, A2A, A2B, and A3ARs were transfected in CHO cells based on the previously reported method. The cells were grown adherently and maintained in Dulbecco's modified Eagle's medium with nutrient mixture F12 (DMEM/F12) without nucleosides, containing 10% foetal calf serum, streptomycin (100 µg ml^−1), penicillin (100 µg ml^−1), L-glutamine (2 mM) and Geneticin (G418, 0.2 mg ml^−1) at 37°C in 5% CO2, 95% air. The membrane preparation was initiated by removal of culture medium followed by washing of the cells with phosphate buffered saline and scraped off T75 flasks in ice-cold hypotonic buffer (5 mM Tris–HCl, 2 mM EDTA, pH7.4). Then the cell suspension was homogenized with a polytron, and the homogenate was centrifuged for 10 min at 1000 g. The supernatant was then centrifuged for 30 min at 100 000 g. The membrane pellet was suspended in (i) 50 mM Tris–HCl buffer, pH 7.4, for A1ARs; (ii) 50 mM Tris–HCl, 10 mM MgCl2 buffer, pH 7.4, for A2AARs; and (iii) 50 mM Tris–HCl, 10 mM MgCl2, 1 mM EDTA buffer, pH 7.4, for A3ARs. The cell suspension was incubated with adenosine deaminase for 30 min at 37°C. Then the membrane preparation was used for binding experiments.
The potency of antagonists at the A2BAR was determined in adenylyl cyclase experiments. For the measurement of adenylyl cyclase activity, only one high speed centrifugation of the homogenate was used. The resulting crude membrane pellet was resuspended in 50 mM Tris–HCl, pH 7.4 and immediately used for the cyclase assay.
(§2) Inhibitory binding constants, Ki, were calculated from the IC50 values according to the Cheng and Prusoff equation Ki = IC50/(1 + [C*]/KD*), where [C*] is the concentration of the radioligand and KD* its dissociation constant. A weighted nonlinear least-squares curve fitting program LIGAND was also used for computer analysis of inhibition experiments. Potency values (IC50) obtained in cyclic AMP assays were calculated by nonlinear regression analysis using the equation for a sigmoid concentration–response curve (Graph Pad Prism, San Diego, CA, USA). All experimental data are expressed as geometric mean with 95% confidence limits in parentheses of three or four independent experiments performed in duplicate.

The next data set addresses T2, hA3AR (Homo sapiens, UniProt P0DMS8).
T2 construct: expressed in transfected cells; host or cells: CHO cells (membrane preparation)
T2 sequence (P0DMS8 1-318): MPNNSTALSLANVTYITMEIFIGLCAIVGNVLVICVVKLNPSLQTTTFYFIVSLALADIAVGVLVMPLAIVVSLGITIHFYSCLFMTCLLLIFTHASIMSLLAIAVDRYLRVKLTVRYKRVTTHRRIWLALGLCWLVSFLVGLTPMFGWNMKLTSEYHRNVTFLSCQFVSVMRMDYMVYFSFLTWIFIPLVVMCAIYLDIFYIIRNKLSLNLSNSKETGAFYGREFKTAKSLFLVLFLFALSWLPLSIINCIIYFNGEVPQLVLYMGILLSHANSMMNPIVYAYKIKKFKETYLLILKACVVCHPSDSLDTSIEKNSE
Nature of the data set: Displacement of specific [3H]HEMADO binding at hA3AR expressed in CHO cells. The conditions noted are these: for Ki: [3H]-HEMADO displacement, CHO cells, n = 3–6, read-out: Ki hA3 (95% CI); for selectivity hA1/A3: ratio of Ki hA1 to Ki hA3; for selectivity hA2A/A3: ratio of Ki hA2A to Ki hA3 as headed.

The next data set deals with T3, hA1AR (Homo sapiens, UniProt P30542).
T3 sequence (P30542 1-326): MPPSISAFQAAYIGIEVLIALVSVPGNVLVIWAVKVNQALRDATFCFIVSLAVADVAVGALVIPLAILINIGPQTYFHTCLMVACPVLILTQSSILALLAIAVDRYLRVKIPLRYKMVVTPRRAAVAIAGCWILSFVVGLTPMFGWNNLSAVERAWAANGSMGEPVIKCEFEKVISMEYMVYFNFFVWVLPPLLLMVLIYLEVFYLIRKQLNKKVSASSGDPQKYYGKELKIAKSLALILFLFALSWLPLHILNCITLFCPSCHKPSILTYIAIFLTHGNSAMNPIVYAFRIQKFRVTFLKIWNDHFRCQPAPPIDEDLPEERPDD
Kind of data set: Displacement of specific [3H]CCPA binding at hA1AR expressed in CHO cells. The conditions noted are these: [3H]-CCPA displacement, n = 3–6, read-out: Ki hA1 (95% CI).
Text: (§3) The receptor binding affinities of the synthesized benzothiazolylquinoline derivatives (6a-l) are recapitulated in table 2. The binding affinity of the antagonist was estimated by measuring the displacement of selective radioligands which were formerly bound to the receptor expressed (Chinese hamster ovary cells (CHO) for hA1AR, hA2AAR and hA3AR) at the surface of the cell. In this particular assay, the displacement of: (i) specific [3H] CCPA (2-chloro-N(6)-cyclopentyladenosine) binding at hA1AR, (ii) specific [3H] NECA (5'-N-ethylcarboxamidoadenosine) binding at the hA2AAR, and (iii) [3H] HEMADO (2-(1-hexynyl)-N^6-methyladenosine) at the hA3AR were evaluated. […] Ki (dissociation constant) value of the data was calculated using the Cheng and Prusoff equation [49], with geometric means of at least three experiments including 95% confidence intervals. […] Selectivity of this compound at hA3 with respect to hA1 and hA2 has also been reduced to some extent.
as §1
(§4) For radioligand binding at A1 ARs 1 nM [3H] CCPA was used, whereas 30 nM of [3H] NECA were used for A2A and 10 nM of [3H]- HEMADO were used for A3 receptors, respectively. Nonspecific binding of [3H]CCPA was determined in the presence of 1 mM theophylline, when [3H]NECA 100 µM R-PIA was used.
as §2

The target of a further data set is T4, hA2AAR (Homo sapiens, UniProt P29274).
T4 construct: expressed in transfected cells; host or cells: CHO cells (membrane preparation)
T4 sequence (P29274 whole entry): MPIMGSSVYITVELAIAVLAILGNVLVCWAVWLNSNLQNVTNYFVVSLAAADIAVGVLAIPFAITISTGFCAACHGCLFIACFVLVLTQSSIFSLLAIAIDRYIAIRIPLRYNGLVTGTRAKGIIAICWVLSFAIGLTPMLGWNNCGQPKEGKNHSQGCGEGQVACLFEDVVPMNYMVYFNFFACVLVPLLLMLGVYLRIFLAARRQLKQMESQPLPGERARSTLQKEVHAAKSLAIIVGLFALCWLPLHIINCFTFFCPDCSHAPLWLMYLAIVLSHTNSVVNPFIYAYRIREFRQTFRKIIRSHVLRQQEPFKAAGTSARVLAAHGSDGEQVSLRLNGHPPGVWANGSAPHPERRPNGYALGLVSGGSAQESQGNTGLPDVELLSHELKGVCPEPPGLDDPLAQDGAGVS
Kind of data set: Displacement of specific [3H]NECA binding at hA2AAR expressed in CHO cells. Particulars: [3H]-NECA displacement, n = 3–6, read-out: Ki hA2A (95% CI).
Text: as §3, §1, §4, §2

Values joined by “and” are separate entries in the source; they are usually repeats but may differ in a detail not shown here. Equal values may be shown once.

Description for hA3AR: The human A1, A2A, A2B, and A3ARs were transfected in CHO cells based on the previously reported method [47–50]. The cells were grown adherently and maintained in Dulbecco's modified Eagle's medium with nutrient mixture F12 (DMEM/F12) without nucleosides, containing 10% foetal calf serum, streptomycin (100 µg ml^−1), penicillin (100 µg ml^−1), L-glutamine (2 mM) and Geneticin (G418, 0.2 mg ml^−1) at 37°C in 5% CO2, 95% air. The membrane preparation was initiated by removal of culture medium followed by washing of the cells with phosphate buffered saline and scraped off T75 flasks in ice-cold hypotonic buffer (5 mM Tris–HCl, 2 mM EDTA, pH7.4). Then the cell suspension was homogenized with a polytron, and the homogenate was centrifuged for 10 min at 1000 g. The supernatant was then centrifuged for 30 min at 100 000 g. The membrane pellet was suspended in (i) 50 mM Tris–HCl buffer, pH 7.4, for A1ARs; (ii) 50 mM Tris–HCl, 10 mM MgCl2 buffer, pH 7.4, for A2AARs; and (iii) 50 mM Tris–HCl, 10 mM MgCl2, 1 mM EDTA buffer, pH 7.4, for A3ARs. The cell suspension was incubated with adenosine deaminase for 30 min at 37°C. Then the membrane preparation was used for binding experiments.
For radioligand binding at A1 ARs 1 nM [3H] CCPA was used, whereas 30 nM of [3H] NECA were used for A2A and 10 nM of [3H]- HEMADO were used for A3 receptors, respectively [47–50]. Nonspecific binding of [3H]CCPA was determined in the presence of 1 mM theophylline, when [3H]NECA 100 µM R-PIA was used.
Inhibitory binding constants, Ki, were calculated from the IC50 values according to the Cheng and Prusoff equation Ki = IC50/(1 + [C*]/KD*), where [C*] is the concentration of the radioligand and KD* its dissociation constant [49, 50]. A weighted nonlinear least-squares curve fitting program LIGAND was also used for computer analysis of inhibition experiments. […] All experimental data are expressed as geometric mean with 95% confidence limits in parentheses of three or four independent experiments performed in duplicate.

Take `c1ccc(-c2nc3ccccc3s2)c(OCCOc2cccc3cccnc23)c1` [Compound 6a]: the inhibition constant (Ki) (commonly a dissociation constant, usually derived from enzyme kinetics or from competition with a known ligand) at hA2BAR is more than 30 µM; at hA3AR, ~2.6 µM and 2.6 µM; on hA1AR, more than 100 µM; on hA2AAR, 23.8 µM.

For the compound `Brc1cc(Br)c2cccnc2c1OCCOc1ccccc1-c1nc2ccccc2s1` [Compound 6b], the melting point – broadly, the temperature, or range, at which the solid turns liquid – lay in the range of 110 to 112 °C. Further, the inhibition constant Ki at hA2BAR is more than 20 µM. At hA3AR, the inhibition constant (Ki) amounted to 3.2 µM, the “selectivity hA1/A3” value is recorded as more than 31.25 and the “selectivity hA2A/A3” value is given as more than 6.25. Further, the inhibition constant (Ki) on hA1AR is more than 100 µM. Further, the Ki at hA2AAR is 17.2 µM.

Turning to `Clc1ccc(OCCOc2ccccc2-c2nc3ccccc3s2)c2ncccc12` [Compound 6c], the Ki on hA2BAR was more than 20 µM; at hA3AR, 30.4 µM; on hA1AR it was 30.8 µM; at hA2AAR, 32.8 µM.

`Clc1cc(I)c(OCCOc2ccccc2-c2nc3ccccc3s2)c2ncccc12` [Compound 6d] gave a melting point of 125 to 127 °C. For the same compound, on hA2BAR, the inhibition constant Ki is more than 20 µM. On hA3AR, the Ki amounted to 5.6 µM, the “selectivity hA1/A3” value is more than 17.85 and the “selectivity hA2A/A3” value is more than 3.57. In addition, the inhibitory constant (Ki) on hA1AR is more than 100 µM. Besides, the Ki on hA2AAR was more than 20 µM.

Turning to `c1ccc(-c2nc3ccccc3s2)c(OCCCOc2cccc3cccnc23)c1` [Compound 6e], the inhibition constant Ki on hA2BAR was more than 30 µM; on hA3AR, 3.8 µM; at hA1AR, more than 100 µM; on hA2AAR, more than 20 µM.

`Brc1cc(Br)c2cccnc2c1OCCCOc1ccccc1-c1nc2ccccc2s1` [Compound 6f]: the Ki is more than 30 µM on hA2BAR, 6.2 µM at hA3AR, more than 100 µM at hA1AR and more than 20 µM at hA2AAR.

For the compound `Clc1ccc(OCCCOc2ccccc2-c2nc3ccccc3s2)c2ncccc12` [Compound 6g], the inhibition constant Ki is more than 20 µM on hA2BAR, 4.2 µM at hA3AR, more than 100 µM on hA1AR and more than 20 µM on hA2AAR.

As to `Clc1cc(I)c(OCCCOc2ccccc2-c2nc3ccccc3s2)c2ncccc12` [Compound 6h], the Ki was more than 20 µM at hA2BAR, 6.1 µM at hA3AR, more than 100 µM on hA1AR and more than 20 µM at hA2AAR.

With `c1ccc(-c2nc3ccccc3s2)c(OCCCCOc2cccc3cccnc23)c1` [Compound 6i], the Ki on hA2BAR is more than 20 µM; at hA3AR, 25.4 µM; on hA1AR it was 29.7 µM; on hA2AAR, 34.9 µM.

On to `Brc1cc(Br)c2cccnc2c1OCCCCOc1ccccc1-c1nc2ccccc2s1` [Compound 6j], for which the Ki is more than 20 µM on hA2BAR, 6.4 µM at hA3AR, more than 100 µM on hA1AR and more than 20 µM on hA2AAR.

On to `Clc1ccc(OCCCCOc2ccccc2-c2nc3ccccc3s2)c2ncccc12` [Compound 6k], for which the Ki on hA2BAR is more than 10 µM; on hA3AR, 3.7 µM; at hA1AR, more than 100 µM; at hA2AAR, more than 20 µM.

Regarding `Clc1cc(I)c(OCCCCOc2ccccc2-c2nc3ccccc3s2)c2ncccc12` [Compound 6l], the Ki at hA2BAR is more than 30 µM; at hA3AR, 3.6 µM; on hA1AR it was more than 100 µM; on hA2AAR, more than 20 µM.
